The target of one data set is T1, caspase-9 (Homo sapiens, UniProt P55211).
T1 construct: p10 and p20 subunits (Thornberry, N. A. et al, Nature, 1992, 356, 768) were expressed in E. coli; made in house; host or cells: E. coli
T1 sequence (P55211 1-315 limits assumed): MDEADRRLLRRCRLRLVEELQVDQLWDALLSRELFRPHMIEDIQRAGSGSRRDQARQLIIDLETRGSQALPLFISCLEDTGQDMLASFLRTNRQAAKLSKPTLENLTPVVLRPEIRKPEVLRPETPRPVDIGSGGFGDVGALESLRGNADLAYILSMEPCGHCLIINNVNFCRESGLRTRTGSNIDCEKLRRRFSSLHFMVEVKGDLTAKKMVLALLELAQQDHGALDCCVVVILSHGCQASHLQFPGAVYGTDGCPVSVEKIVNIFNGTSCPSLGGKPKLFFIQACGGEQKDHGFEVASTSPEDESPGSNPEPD
T1 sequence (P55211 331-416 limits assumed): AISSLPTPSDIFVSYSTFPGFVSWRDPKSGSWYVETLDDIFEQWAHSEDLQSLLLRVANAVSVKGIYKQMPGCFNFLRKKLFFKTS
Nature of the data set: Caspase-9 inhibitory effect (fluorescent substrate AcLEHD-AFC). The settings on record: pH 7.5; 25° C., 150 μM AcLEHD-AFC, 200 nM caspase-9; read-out: Caspase-9 Kobs/[I] (converted). In kind it is biochemical. The method, then: Caspase-1 and caspase-8 known as cysteine proteases in the form of α2β2 were expressed, purified, and activated by modifying a method known in Thornberry, N. A. et al, Nature, 1992, 356, 768. Thornberry, N. A. Methods in Enzymology, 1994, 244, 615. Walker, N. P. C. et al. Cell, 1994, 78, 343, and caspase-9 was also purified by a similar method, and the inhibitory activity against them was tested. Briefly describing, p10 and p20 subunits (Thornberry, N. A. et al, Nature, 1992, 356, 768) were expressed in E. coli and purified by nickel column and anionic exchange chromatography to give caspase-1, caspase-8 and caspase-9. The fluorescent substrate AcYVAD-AFC for thus obtained caspase-1, AcDEVD-AFC for caspase-8, and AcLEHD-AFC for caspase-9 were used for determining specific activity of the synthesized inhibitors. […] The inhibitory constants Ki and Kobs of the inhibitors were determined by measuring the reaction velocity with the time lapse using a fluorescent spectrometer and by obtaining the initial rate constant. Ki was calculated from the Lineweaver Burk Plot, and Kobs from the following Equation 1. […]

The test system of another data set is hepatic fibrosis. Nature of the data set: Inhibitory effect against hepatic fibrosis in SD rats (biliary duct ligation, Sirius red staining). It is filed as in vivo, rat. The settings on record: BDL rats, 3 or 10 mg/kg orally twice a day for 1 week. The method, then:
Male Spargue-Dawley rats (6 weeks, Korea Biolink) were kept under the conditions of 22 °C, 55% of relative humidity, and light-darkness cycle of 12 hours. Food and water were supplied ad libitum. For the ligation of biliary duct, the rats were anesthetized by inhalation of 1% halothane, abdomen of the rats were cut open, the distal and proximal biliary ducts were ligated, the part between the ligation sites were cut, 2 ml of saline was injected, and sutured. Test compound (Iii) was orally administered in a dosage of 3 mg/kg or 10 mg/kg twice a day. That is, the compound was dissolved in a cosolvent (PEG400:ethanol:Tween80=15:7.5:2.5), diluted with phosphate buffer (pH 7.4) by five times, and administered. To the control group was administered the solution without the test compound. The administration was made for 1 week after 1 week from the ligation of biliary duct. After the administration, the rats were sacrificed. The livers were fixed by 10% neutral formalin and a paraffin section of 5 μm thickness was prepared and stained by 0.1% Sirius red (Direct red 80, Sigma). The tissue section was investigated by an optical microscope to observe the collagen fibers stained in red, and the results are represented in FIG. 1.

A further data set concerns hepatic cell apoptosis. Nature of the data set: Inhibitory effect against apoptosis during the bile stagnation in SD rats (TUNEL staining). In kind it is in vivo, rat. The settings on record: for TUNEL positive cells/field: BDL rats. The method, then: Male Spargue-Dawley rats (6 weeks, Korea Biolink) were kept under the conditions of 22 °C, 55% of relative humidity, and light-darkness cycle of 12 hours. Food and water were supplied ad libitum. For the ligation of biliary duct, the rats were anesthetized by inhalation of 1% halothane, abdomen of the rats were cut open, the distal and proximal biliary ducts were ligated, the part between the ligation sites were cut, 2 ml of saline was injected, and sutured.
Test compound (Iii) was orally administered in a dosage of 3 mg/kg or 10 mg/kg twice a day. That is, the compound was dissolved in a cosolvent (PEG400:ethanol:Tween80=15:7.5:2.5), diluted with phosphate buffer (pH 7.4) by five times, and administered. To the control group was administered the solution without the test compound. The administration was made for 1 week after 1 week from the ligation of biliary duct.
The test compound (Iii) was administered to the SD rats whose biliary ducts were ligated according to the procedure as Step 1 of Experiment 3. After 2 weeks from the operation, the rats were sacrificed. The livers were fixed by 10% neutral formalin and a paraffin section of 5 μm thickness was prepared. TUNEL staining was carried out using ApopTag Peroxidase In Situ Apoptosis Detection kit (Chemicon) according to the manufacturer's instruction. More than 10 sites of the TUNEL stained liver tissue were photographed in 200 magnifications without any overlap, of which result was shown in FIG. 2. The number of cells suffering apoptosis in each test group was counted and represented in the following Table 2. In the following table, the Sham operation means the case where the biliary duct was exposed but not ligated, and the BDL operation means the case where only the vehicle was administered after the ligation of biliary duct.

The nature of data set [1]: Solubility (pH = 7.44 phosphate). In kind it is physicochemical.

Data on one compound can be found in patent publication US7557133B2, “Caspase inhibitors containing isoxazoline ring” (LG Life Sciences Ltd., priority 2003, dated 2009).

The structures appear in SMILES notation.

As to `CC(C)[C@@]1(C(=O)NC(CC(=O)O)C(=O)CF)CC(c2nccc3ccccc23)=NO1` (stereo partly drawn) [Iii, 5-Fluoro-3-({[(5R)-5-isopropyl-3-(1-isoquinolinyl)-4,5-dihydro-5-isoxazolyl]carbonyl}amino)-4-oxopentanoic acid], the kinact/KI on caspase-9 was 3330 M⁻¹ s⁻¹. The “fibrosis by Sirius Red staining” value with hepatic fibrosis is listed as “almost no fibrosis”. Moreover, the TUNEL positive cells/field in the data set with hepatic cell apoptosis (3 mg/kg orally twice a day for 1 week) is 4.12 ± 1.3 TUNEL positive cells/field; with hepatic cell apoptosis (10 mg/kg orally twice a day for 1 week) it was 5.66 ± 1.34 TUNEL positive cells/field. Further, the “inhibition of apoptosis (TUNEL staining)” value in the data set on hepatic cell apoptosis (bile stagnation model, rats) came out at 75%. Also, the “solubility compared with LB84068MP” value in data set [1] is recorded as “improved solubility”.
